# Assay results: PubChem BioAssay AID825 (PCMD, 2007)
# Results filed as inconclusive are left out. Activity calls are given as the source filed them. How the calls were made is not given here.
# Target: Procathepsin L (Homo sapiens) (UniProt P07711)
# Test: IC50 of CTSL protease blockers – biochemical, confirmation, dose response (AID 825)
# Conditions: purified cathepsin L enzyme activity, signal read-out
# Chain of Procathepsin L (Homo sapiens) (P07711 114-288 limits assumed): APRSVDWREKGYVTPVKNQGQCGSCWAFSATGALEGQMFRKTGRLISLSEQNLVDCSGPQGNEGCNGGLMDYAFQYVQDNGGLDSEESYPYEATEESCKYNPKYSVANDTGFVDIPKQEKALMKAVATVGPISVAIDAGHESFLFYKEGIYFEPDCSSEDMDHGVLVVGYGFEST
# Chain of Procathepsin L (Homo sapiens) (P07711 292-333 limits assumed): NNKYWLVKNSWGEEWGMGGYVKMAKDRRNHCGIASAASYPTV
row,SMILES,IC50
1,CC(=O)Nc1nc2n(n1)C(c1ccc(F)cc1)C=C(c1ccccc1)N2 (configuration not stated),> 50 µM (inactive)
2,COc1ccc(OC)c(C2C(C#N)=C(N)Oc3cc(C)n(Cc4ccccn4)c(=O)c32)c1 (configuration not stated),> 50 µM (inactive)
